Consider two molecules from patent US4868303A, “Bis-dioxopiperazine derivatives” (Zenyaku Kogyo Kabushiki Kaisha, priority 1986, dated 1989).

The test system of one data set is V79 cells. Kind of data set: Inhibitory effect on colony formation of V79 cells in vitro. Format: cell-based, Chinese hamster. Particulars: Cricetulus griseus, 96 hours with sample, read-out: 90% inhibitory concentration (IC90). How it is done: (II) Inhibitory effect on Colony Formation of V79 Cells in Vitro:
V79 cells established from Chinese hamster lung fibroblastoma were cultured routinely on plastic dishes (.phi. 60 mm) in RPMI 1640 medium supplemented with 10% fetal calf serum and kanamycin (0.1 mg/ml). Each confluent culture was then trypsinized by the addition of 1 ml of trypsin-EDTA solution (supplied by the firm GIBCO) for 5 minutes at 37° C. in an incubator supplied with humidified air containing 5% CO2.
Homogeneous suspension of V79 cells thus obtained was diluted to 100, 200 and 400 viable cells/ml with the medium, and 1 ml each of them was transferred to other plastic dishes (.phi. 60 mm) containing 1.85 ml of the medium, and diluted to 100, 200 and 400 viable cells/dish.
Each test sample was dissolved in DMSO at the concentration of 20 mM and diluted with the medium to the final concentration of 2×10^-3 -2×10^-10 mM.
Each test dish was kept for 24 hours at 37° C. in an incubator supplied with humidified air containing 5% CO2, and was further cultured for 96 hours after 150 μl of the sample solution was added thereto.
The cells were gently washed once with Mg- and Ca-free phosphate-buffered saline [PBS(-)] and fixed with 1 ml of 3.5% HCHO-PBS(-) solution for 2 hours, then stained with a crystal violet ethanol solution.
The 90% inhibitory concentration (IC90) was calculated by comparing the number of visible colonies on the sample dish with that on the control dish.

In data set [1] the test system is P388 lymphocytic leukemia. Nature of the data set: Increase in life span on P388 lymphocytic leukemia tumor-transplanted mouse. Format: in vivo, mouse (CDF1). Particulars: P388, ip, 24 h, intraperitoneal, day 1 and 5th day after transplantation, read-out: Rate of increase in life span (ILS). How it is done:
(III) Increase in Life Span on P388 Lymphocytic Leukemia Tumor-transplantedMouse:
The treated group to which the test sample was administered consisted of seven mice, while the control group consisted of ten mice. Six weeks old male mice (CDF1, 25±2 g of body weight) were employed as host animals.
Tumor cells (1.0×10^6) of P388 lymphocytic leukemia were transplanted intraperitoneally into each mouse. The treatment was effected one day after the transplantation and on 5th day by administering prescribed dose of each test sample intraperitoneally to the mice.
Antitumor activity of the test sample was evaluated by the rate of increase in life span (ILS) which was calculated with the following formula.
T': median survival time of treated mice
C': median survival time of control mice

Data set [2] relates to P388 lymphocytic leukemia. Nature of the data set: Growth inhibition of tumor cells of P388 lymphocytic leukemia in vitro. It counts as cell-based, mouse (CDF1). The conditions noted are these: Mus musculus, 48 hours at 37° C., read-out: 50% Inhibitory concentration of cell growth (IC50). How it is done: (I) Growth Inhibition of Tumor Cells of P388 Lymphocytic Leukemia in Vitro:
Tumor cells were collected aseptically with capillary tube from ascites in CDF1 female mice transplanted intraperitoneally with 1×10^6cells of P388 lymphocytic leukemia 5 days before. Cell suspension was prepared at 5×10^4 cells/0.5 ml in a RPMI1640 medium supplemented with 10% fetal calf serum, kanamycin (0.1 mg/ml) and 2-hydroxyethyldisulfide (0.01 mM). Each test sample was dissolved or suspended in the medium at a concentration of 1×10^-1 -1×10^-5 mM.
A test tube with Molton stopper loosely involving 0.5 ml each of the cell suspension and the sample suspension was kept for 48 hours at 37° C. in an incubator supplied with air containing 5% carbon dioxide. […] The cells harvested therefrom was counted by using of a Coulter Counter and the inhibition of cell growth was calculated by the following formula:
Growth Inhibition (%)=(1-T/C)×100
T: number of cells in the culture containing test sample
C: number of cells in the culture of control

The next data set in a line: Acute toxicity (LD50). Particulars: mouse, in vivo, ip; intraperitoneal, suspended in saline with 1% HPC, observed 14 days. How it is done:
The acute toxicity of the compounds of the present invention was examined by the following test.
The test group to which the compound of the present invention was administered consisted of five mice. Six weeks old male mice (ddY, 30±2 g of body weight) were employed as test animals.

For orientation: ILS means how much longer treated animals lived than controls. Usually LD50 stands for the dose at which mortality reaches 50%. Low values mean a more toxic substance, high ones a less toxic substance. On to `Cc1cccc(C(=O)OCN2C(=O)CN([C@@H](C)[C@@H](C)N3CC(=O)NC(=O)C3)CC2=O)c1` (relative stereo) [Sample 14, erythro-2-[4-(3-toluoyloxmethyl)-3,5-dioxopiperazin-1-yl]-3-(3,5-dioxopiperazine-1-yl)butane], for which the IC90 with V79 cells was found to be 0.051 nM. For the same molecule, in data set [1] (daily dose 2.3 mg/kg), the ILS at 2.3 mg/kg was determined as 199%. Also, the IC50 in data set [2] stood at 0.013 µM. This molecule registered an LD50 at 336 h in the data set “Acute toxicity (LD50)” of 6.7 to 10 mg/kg.
In the case of `CC(C)COC(=O)OCN1C(=O)CN(CCN2CC(=O)N(COC(=O)OCC(C)C)C(=O)C2)CC1=O` [Sample A, 1,2-bis(4-isobutoxycarbonyloxymethyl-3,5-dioxopiperazin-1-yl)ethane, reference compound], the IC90 in the data set on V79 cells is 110 nM. In data set [1] (daily dose 3.0 mg/kg), the ILS at 3 mg/kg turned out to be 5%. The ILS at 250 mg/kg in data set [1] (daily dose 250 mg/kg (*Adequate dose)) was found to be 106%. In addition, the IC50 in data set [2] was 16 µM.
